According to patent US8372822B2, “Polymorphs of eltrombopag and eltrombopag salts and processes for preparation thereof” (Pliva Hrvatska D.O.O., priority 2009, dated 2013):
Values belong to the compound of their own block, whether it stands above or below them.

What was measured:
Type in all cases: physicochemical
Solubility = assay: Solubility
[1] = Hygroscopicity: absorption of atmospheric water, measured by TGA; settings: relative humidity of 80%, 100% at room temperature, non-hygroscopic = less than 0.2% (w/w) absorption of atmospheric water by TGA
Description: As used herein the term non-hygroscopic in relation to crystalline Eltrombopag refers to less than 0.2% (w/w) absorption of atmospheric water to the crystalline Eltrombopag in the above specified conditions, as measured by TGA.

[2] = Thermo-dynamical stability: conversion to other solid state forms under heating, measured by XRPD; settings: heating up to 200° C. at 10° C./minute, defined as less than 20%, 5%, 1%, or 0.5% conversion to any other solid state form by XRPD
Procedure: As used herein the term “thermo-dynamical stability” in relation to crystalline Eltrombopag form I refers to less than 20%, 10%, 5%, 1%, or 0.5% conversion of crystalline Eltrombopag form Ito any other solid state form of Eltrombopag under heating up to temperature of 200° C. at a heating rate of 10° C./minute, as measured by XRPD. In some embodiments, the conversion is 1%-20%, 1%-10% or 1%-5%.

solubility in water (Solubility; water): highly soluble in water
SMILES: CC1=NN(c2ccc(C)c(C)c2)C(=O)/C1=N\Nc1cccc(-c2cccc(C(=O)O)c2)c1O [Eltrombopag bisethanolamine form II]

hygroscopicity ([1]; at least 10 months): non-hygroscopic
SMILES: CC1=NN(c2ccc(C)c(C)c2)C(=O)/C1=N\Nc1cccc(-c2cccc(C(=O)O)c2)c1O [Eltrombopag form III]

thermo-dynamical stability [2]: advantageous
solubility (Solubility; medium not stated): advantageous
SMILES: CC1=NN(c2ccc(C)c(C)c2)C(=O)/C1=N\Nc1cccc(-c2cccc(C(=O)O)c2)c1O [Eltrombopag form I]

hygroscopicity ([1]; at least 5 months): non-hygroscopic
SMILES: CC1=NN(c2ccc(C)c(C)c2)C(=O)/C1=N\Nc1cccc(-c2cccc(C(=O)O)c2)c1O [Eltrombopag form XVI]
